Data from ChEMBL document CHEMBL1156187, “Discovery of a selective small-molecule melanocortin-4 receptor agonist with efficacy in a pilot study of sexual dysfunction in humans” (J Med Chem, 2010).
Activity calls are given as the source filed them. The rule behind the calls is not given here.

Key:
[1] = (§1) Oral bioavailability in dog at 0.5 mg/kg; type: ADME, organism-based, Canis lupus familiaris; details: in vivo
[2] = Half life in dog at 0.14 mg/kg, intranasal; type: ADME, organism-based, Canis lupus familiaris; design: dose 0.14 mg/kg; details: in vivo, inhaled or intranasal
Melanocortin receptor 4 [3] = target: T1, Melanocortin receptor 4 (Homo sapiens, UniProt P32245); assay: Agonist activity at human recombinant MC4 receptor expressed in CHO cells by cAMP responsive beta lactamase reporter gene assay; type: functional, cell-based
[4] = AUC (0 to infinity) in dog at 0.67 mg/kg, sublingual; type: ADME, organism-based, Canis lupus familiaris; design: route sublingual, dose 0.67 mg/kg, time infinity; details: plasma
Homo sapiens [5] = assay: Reversal of erectile dysfunction in human assessed as visual sexual stimulation at 200 mg, po after 2 hrs post dose; type: functional, organism-based
[6] = Half life in dog at 0.67 mg/kg, sublingual; type: ADME, organism-based, Canis lupus familiaris; design: dose 0.67 mg/kg; details: in vivo
[7] = Intrinsic clearance in human liver microsome measured per mg of protein; type: ADME; details: liver microsomes
[8] = Binding affinity to sigma opioid receptor
[9] = Cmax in dog at 0.14 mg/kg, sublingual; type: ADME, organism-based, Canis lupus familiaris; design: route sublingual, dose 0.14 mg/kg; details: in vivo
[10] = Bioavailability in dog at 2.04 mg/kg, sublingual; type: ADME, organism-based, Canis lupus familiaris; details: in vivo
Melanocortin receptor 3 [11] = target: T2, Melanocortin receptor 3 (Homo sapiens, UniProt P41968); assay: Agonist activity at human recombinant MC3 receptor expressed in CHO cells assessed as cAMP accumulation by enzyme fragment complementation assay relative to […]; type: functional, cell-based
[12] = Association constant, pKa of the compound; type: physicochemical
[13] = Binding affinity to sodium channel
[14] = target: T3, Melanocyte-stimulating hormone receptor (Homo sapiens, UniProt Q01726); assay: Agonist activity at human recombinant MC1 receptor expressed in HEK293 cells assessed as cAMP accumulation by enzyme fragment complementation assay relative to alpha melanocyte-stimulating hormone; type: functional, cell-based
Target sequence in this assay (Q01726 whole entry, looked up, the tested form may be a part): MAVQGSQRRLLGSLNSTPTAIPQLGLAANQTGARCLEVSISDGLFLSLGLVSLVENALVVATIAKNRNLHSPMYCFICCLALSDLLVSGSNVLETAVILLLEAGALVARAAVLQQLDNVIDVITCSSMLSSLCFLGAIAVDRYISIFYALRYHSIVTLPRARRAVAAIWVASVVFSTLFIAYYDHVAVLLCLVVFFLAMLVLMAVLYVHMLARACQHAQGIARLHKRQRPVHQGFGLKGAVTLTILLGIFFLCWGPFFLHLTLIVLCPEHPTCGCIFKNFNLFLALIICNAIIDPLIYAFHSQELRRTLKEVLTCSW

[15] = Cmax in dog at 0.67 mg/kg, sublingual; type: ADME, organism-based, Canis lupus familiaris; design: dose 0.67 mg/kg, route sublingual; details: in vivo
[16] = Volume of distribution at steady state in rat at 1 mg/kg, iv; type: ADME, organism-based; design: dose 1 mg/kg, route intravenous; details: in vivo, read-out: Vdss
[17] = Tmax in dog at 0.5 mg/kg, po; type: ADME, organism-based, Canis lupus familiaris; design: dose 0.5 mg/kg, route oral; details: in vivo
[18] = Intrinsic clearance in dog liver microsome measured per mg of protein; type: ADME, Canis lupus familiaris; details: microsomes
[19] = as §1; type: ADME, organism-based, Canis lupus familiaris; details: in vivo; remark: listed apart in the source
[20] = Clearance in dog plasma at 0.5 mg/kg, iv; type: ADME, organism-based, Canis lupus familiaris; design: dose 0.5 mg/kg, route intravenous
[21] = Terminal half life in human at 195 mg, po; type: ADME, organism-based; details: in vivo, read-out: beta t1/2 (converted)
[22] = Peak plasma concentration in rat at 195 mg, po; type: ADME, organism-based
[23] = Half life in dog at 2.04 mg/kg, sublingual; type: ADME, organism-based, Canis lupus familiaris; design: dose 2.04 mg/kg; details: in vivo
[24] = Tmax in dog at 0.14 mg/kg, intranasal; type: ADME, organism-based, Canis lupus familiaris; design: dose 0.14 mg/kg; details: in vivo, inhaled or intranasal
Liver microsomes = assay: Intrinsic clearance in rat liver microsome measured per mg of protein; type: ADME
[25] = Cmax in dog at 0.5 mg/kg, po; type: ADME, organism-based, Canis lupus familiaris; design: dose 0.5 mg/kg, route oral; details: in vivo
[26] = Clearance in rat at 1 mg/kg, iv; type: ADME, organism-based; design: dose 1 mg/kg, route intravenous; details: in vivo
[27] = Cmax in dog at 2.04 mg/kg, sublingual; type: ADME, organism-based, Canis lupus familiaris; design: dose 2.04 mg/kg, route sublingual; details: in vivo
[28] = target: T3, Melanocyte-stimulating hormone receptor; assay: Agonist activity at human recombinant MC1 receptor expressed in HEK293 cells assessed as cAMP accumulation by enzyme fragment complementation assay; type: functional, cell-based
Target sequence in this assay (Q01726 whole entry, the tested form may be a part): as the sequence (Q01726 whole entry, looked up, the tested form may be a part) above

[29] = Oral bioavailability in rat at 1 mg/kg; type: ADME, organism-based; details: in vivo
[30] = Fraction unbound in rat plasma; type: ADME, cell-free
[31] = Drug excretion in iv dosed rat bile; type: ADME, organism-based; details: read-out: Drug uptake
[32] = Tmax in dog at 0.67 mg/kg, sublingual; type: ADME, organism-based, Canis lupus familiaris; design: dose 0.67 mg/kg; details: in vivo
Melanocortin receptor 5 [33] = target: T4, Melanocortin receptor 5 (Homo sapiens, UniProt P33032); assay: Agonist activity at human recombinant MC5 receptor expressed in HEK293 cells assessed as cAMP accumulation by beta lactamase reporter gene assay relative to alpha melanocyte-stimulating hormone; type: functional, cell-based
[34] = AUC (0 to infinity) in dog at 0.14 mg/kg, intranasal; type: ADME, organism-based, Canis lupus familiaris; design: route nasal, time infinity, dose 0.14 mg/kg; details: plasma, inhaled or intranasal
[35] = Volume of distribution at steady state in dog plasma at 0.5 mg/kg, iv; type: ADME, organism-based, Canis lupus familiaris; design: dose 0.5 mg/kg, route intravenous; details: read-out: Vdss
[36] = Tmax in dog at 2.04 mg/kg, sublingual; type: ADME, organism-based, Canis lupus familiaris; design: dose 2.04 mg/kg; details: in vivo
Melanocortin receptor 3 [37] = target: T2, Melanocortin receptor 3; assay: Agonist activity at human recombinant MC3 receptor expressed in CHO cells assessed as cAMP accumulation by enzyme fragment complementation assay; type: functional, cell-based
[38] = Cmax in dog at 0.14 mg/kg, intranasal; type: ADME, organism-based, Canis lupus familiaris; design: route nasal, dose 0.14 mg/kg; details: in vivo, inhaled or intranasal
[39] = Apparent Permeability from apical to basolateral side of MDCK2 cells over expressing MDR1; type: ADME, cell-based, Canis lupus familiaris; details: dog, MDCK-MDR1; read-out: permeability
[40] = Peak plasma concentration in rat at 195 mg, sublingual; type: ADME, organism-based
[41] = Half life in dog at 0.14 mg/kg, sublingual; type: ADME, organism-based, Canis lupus familiaris; design: dose 0.14 mg/kg; details: in vivo
Homo sapiens [42] = assay: Reversal of erectile dysfunction in human assessed as non-visual sexual stimulation at 200 mg, po dosed twice with the interval of 7 days after 2 hrs post dose; type: functional, organism-based
[43] = Drug excretion in iv dosed rat urine; type: ADME, organism-based; details: read-out: Drug uptake
[44] = Half life in dog at 0.5 mg/kg, iv; type: ADME, organism-based, Canis lupus familiaris; design: dose 0.5 mg/kg, route intravenous; details: in vivo
[45] = AUC (0 to infinity) in dog at 2.04 mg/kg, sublingual; type: ADME, organism-based, Canis lupus familiaris; design: time infinity, dose 2.04 mg/kg, route sublingual; details: plasma
[46] = Tmax in dog at 0.14 mg/kg, sublingual; type: ADME, organism-based, Canis lupus familiaris; design: dose 0.14 mg/kg; details: in vivo
[47] = Half life in rat at 1 mg/kg, iv; type: ADME, organism-based; design: dose 1 mg/kg, route intravenous; details: in vivo
Homo sapiens [48] = assay: Reversal of erectile dysfunction in human assessed as non-visual sexual stimulation at 200 mg, po after 2 hrs post dose; type: functional, organism-based
[49] = Bioavailability in dog at 0.14 mg/kg, sublingual; type: ADME, organism-based, Canis lupus familiaris; details: in vivo
Melanocortin receptor 4 [50] = target: T1, Melanocortin receptor 4; assay: Displacement of [125I]-MT-II from human recombinant MC4 receptor expressed in CHO cells by scintillation counting
[51] = Drug excretion in rat urine assessed as parent compound level at 195 mg; type: ADME; details: read-out: Drug uptake
[52] = Fraction unbound in dog plasma; type: ADME, cell-free, Canis lupus familiaris
[53] = Lipophilicity, log D at pH 7.4; type: physicochemical; details: buffer
Homo sapiens [54] = assay: Reversal of erectile dysfunction in human assessed as visual sexual stimulation at 200 mg, po dosed twice with the interval of 7 days measuerd after 2 hrs post-dose on day 7; type: functional, organism-based
[55] = AUC (0 to infinity) in dog at 0.14 mg/kg, sublingual; type: ADME, organism-based, Canis lupus familiaris; design: time infinity, route sublingual, dose 0.14 mg/kg; details: plasma
[56] = Bioavailability in dog at 0.14 mg/kg, intranasal; type: ADME, organism-based, Canis lupus familiaris; details: in vivo, inhaled or intranasal
[57] = Half life in dog at 0.5 mg/kg, po; type: ADME, organism-based, Canis lupus familiaris; design: dose 0.5 mg/kg, route oral; details: in vivo
Melanocortin receptor 5 [58] = target: T4, Melanocortin receptor 5; assay: Agonist activity at human recombinant MC5 receptor expressed in HEK293 cells assessed as cAMP accumulation by beta lactamase reporter gene assay; type: functional, cell-based
[59] = AUC (0 to infinity) in dog at 0.5 mg/kg, po; type: ADME, organism-based, Canis lupus familiaris; design: time infinity, dose 0.5 mg/kg, route oral; details: plasma
[60] = Apparent Permeability from basolateral to apical side of MDCK2 cells over expressing MDR1; type: ADME, cell-based, Canis lupus familiaris; details: dog, MDCK-MDR1; read-out: permeability
Homo sapiens [61] = species on record: Homo sapiens; assay: Toxicity in human assessed as minimum effective dose; type: organism-based; details: in vivo
[62] = Bioavailability in dog at 0.67 mg/kg, sublingual; type: ADME, organism-based, Canis lupus familiaris; details: in vivo

T1 sequence (P32245 whole entry): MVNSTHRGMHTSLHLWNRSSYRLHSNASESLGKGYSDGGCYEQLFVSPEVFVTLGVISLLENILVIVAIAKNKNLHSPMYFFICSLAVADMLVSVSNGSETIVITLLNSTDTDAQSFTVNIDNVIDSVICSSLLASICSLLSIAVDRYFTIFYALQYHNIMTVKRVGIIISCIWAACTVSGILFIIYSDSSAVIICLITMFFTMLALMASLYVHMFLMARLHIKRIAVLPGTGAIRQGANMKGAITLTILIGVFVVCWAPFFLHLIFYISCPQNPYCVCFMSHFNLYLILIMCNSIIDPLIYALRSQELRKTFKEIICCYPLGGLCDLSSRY
T2 sequence (P41968 whole entry, the tested form may be a part): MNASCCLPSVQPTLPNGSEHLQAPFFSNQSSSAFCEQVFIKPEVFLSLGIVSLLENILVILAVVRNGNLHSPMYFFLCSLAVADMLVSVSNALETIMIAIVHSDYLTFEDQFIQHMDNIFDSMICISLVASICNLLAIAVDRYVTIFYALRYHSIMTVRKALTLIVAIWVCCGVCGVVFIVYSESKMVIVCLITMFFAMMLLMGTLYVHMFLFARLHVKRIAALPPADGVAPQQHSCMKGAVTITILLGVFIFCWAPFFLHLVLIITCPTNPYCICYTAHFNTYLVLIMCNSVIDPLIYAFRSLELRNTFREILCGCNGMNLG
T4 sequence (P33032 whole entry): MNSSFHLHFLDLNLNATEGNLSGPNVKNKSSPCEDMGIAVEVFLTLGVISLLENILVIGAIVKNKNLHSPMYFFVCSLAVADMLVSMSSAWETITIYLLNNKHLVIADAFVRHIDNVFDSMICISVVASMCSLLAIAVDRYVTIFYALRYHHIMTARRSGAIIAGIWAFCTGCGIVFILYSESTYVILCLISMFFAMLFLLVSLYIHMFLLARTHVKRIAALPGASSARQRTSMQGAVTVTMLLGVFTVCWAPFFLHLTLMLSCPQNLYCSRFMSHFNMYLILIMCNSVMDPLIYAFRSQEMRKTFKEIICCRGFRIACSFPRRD

`C[C@@H]1CN(C(=O)[C@@H]2CN(C(C)(C)C)C[C@H]2c2ccc(F)cc2F)C[C@H](C)[C@@]1(O)c1ccccc1.Cl` gave a bioavailability [1] of 1%, a half-life [2] of 3.3 h and an EC50 (Melanocortin receptor 4 [3]) of 12 nM. The AUC(0-inf) [4] was 64 ng·h/mL, the Activity (Homo sapiens [5]) was “Active” and the half-life [6] was 3.6 h. It also gave a microsomal CLint [7] of 45 µL/min/mg, a Ki [8] of 330 nM and a Cmax [9] of 2.6 ng/mL. The bioavailability [10] was 20%, the Emax (Melanocortin receptor 3 [11]) was 99% and the pKa [12] was 8.95. For the same compound, the Ki [13] was 690 nM, the Emax [14] was 103% and the Cmax [15] was 15 ng/mL. For the same compound, the Vd [16] was 19 L/kg, the Tmax [17] was 1 h and the clearance [18] was 242 µL/min/mg. The bioavailability [19] was 1%, the clearance [20] was 46 mL/min/kg and the half-life [21] was 12 h. It also gave a Cmax [22] of 30 ng/mL, a half-life [23] of 4 h and a Tmax [24] of 1.6 h. It also gave a clearance (Liver microsomes) of 60 µL/min/mg, a Cmax [25] of 0.9 ng/mL and a clearance [26] of 89 mL/min/kg. The Cmax [27] was 41 ng/mL, the EC50 [28] was 1020 nM and the bioavailability [29] was 20%. The fraction unbound [30] was 0.07, the dose excreted [31] was under 1% and the Tmax [32] was 0.3 h. For the same compound, the Emax (Melanocortin receptor 5 [33]) was 100%, the AUC(0-inf) [34] was 12 ng·h/mL and the Vd [35] was 17 L/kg. For the same compound, the Tmax [36] was 0.3 h, the EC50 (Melanocortin receptor 3 [37]) was 1160 nM and the Cmax [38] was 2.6 ng/mL. It also gave a Papp A→B [39] of 41 ×10⁻⁶ cm/s, a Cmax [40] of 31 ng/mL and a half-life [41] of 3.7 h. For the same compound, the Activity (Homo sapiens [42]) was “Active”, the dose excreted [43] was under 3% and the half-life [44] was 4.2 h. The AUC(0-inf) [45] was 146 ng·h/mL, the Tmax [46] was 0.7 h and the half-life [47] was 2.4 h. The Activity (Homo sapiens [48]) was “Active”, the bioavailability [49] was 35% and the Ki (Melanocortin receptor 4 [50]) was 27 nM. The dose excreted [51] was under 2.5%, the fraction unbound [52] was 0.15 and the logD [53] was 2.8. For the same compound, the Activity (Homo sapiens [54]) was “Active”, the AUC(0-inf) [55] was 17 ng·h/mL and the bioavailability [56] was 24%. For the same compound, the half-life [57] was 1.9 h, the EC50 (Melanocortin receptor 5 [58]) was 1980 nM and the AUC(0-inf) [59] was 1.8 ng·h/mL. For the same compound, the Papp B→A [60] was 18 ×10⁻⁶ cm/s, the Activity (Homo sapiens [61]) was “Toxic” and the bioavailability [62] was 26%.
